Source: PubChem BioAssay AID651897 (Broad Institute, 2012)

Target: cruzain (cruzipain), Trypanosoma cruzi
Assay: inhibition of T. cruzi cysteine protease cruzain – biochemical, dry powder, dose response (AID 651897)
Conditions: purified recombinant cruzain, Z-Phe-Arg-AMC fluorescence

## C[C@H]1CN([C@@H](C)CO)C(=O)c2cccc(NC(=O)c3ccncc3)c2O[C@@H]1CN(C)Cc1ccc(Oc2ccccc2)cc1
  IC50: 13.2 µM
